# Laboratory results published in PMC5557014 (Biochemical pharmacology, 2017).
# Read-outs that look alike come from different tables or passages of the source.
# Assays:
# [1] = target: T1, cellular DNA polymerase α (Homo sapiens, UniProt P09884); experiment: Cellular DNA polymerase α assay; format: biochemical
# T1 sequence (P09884 1-1462): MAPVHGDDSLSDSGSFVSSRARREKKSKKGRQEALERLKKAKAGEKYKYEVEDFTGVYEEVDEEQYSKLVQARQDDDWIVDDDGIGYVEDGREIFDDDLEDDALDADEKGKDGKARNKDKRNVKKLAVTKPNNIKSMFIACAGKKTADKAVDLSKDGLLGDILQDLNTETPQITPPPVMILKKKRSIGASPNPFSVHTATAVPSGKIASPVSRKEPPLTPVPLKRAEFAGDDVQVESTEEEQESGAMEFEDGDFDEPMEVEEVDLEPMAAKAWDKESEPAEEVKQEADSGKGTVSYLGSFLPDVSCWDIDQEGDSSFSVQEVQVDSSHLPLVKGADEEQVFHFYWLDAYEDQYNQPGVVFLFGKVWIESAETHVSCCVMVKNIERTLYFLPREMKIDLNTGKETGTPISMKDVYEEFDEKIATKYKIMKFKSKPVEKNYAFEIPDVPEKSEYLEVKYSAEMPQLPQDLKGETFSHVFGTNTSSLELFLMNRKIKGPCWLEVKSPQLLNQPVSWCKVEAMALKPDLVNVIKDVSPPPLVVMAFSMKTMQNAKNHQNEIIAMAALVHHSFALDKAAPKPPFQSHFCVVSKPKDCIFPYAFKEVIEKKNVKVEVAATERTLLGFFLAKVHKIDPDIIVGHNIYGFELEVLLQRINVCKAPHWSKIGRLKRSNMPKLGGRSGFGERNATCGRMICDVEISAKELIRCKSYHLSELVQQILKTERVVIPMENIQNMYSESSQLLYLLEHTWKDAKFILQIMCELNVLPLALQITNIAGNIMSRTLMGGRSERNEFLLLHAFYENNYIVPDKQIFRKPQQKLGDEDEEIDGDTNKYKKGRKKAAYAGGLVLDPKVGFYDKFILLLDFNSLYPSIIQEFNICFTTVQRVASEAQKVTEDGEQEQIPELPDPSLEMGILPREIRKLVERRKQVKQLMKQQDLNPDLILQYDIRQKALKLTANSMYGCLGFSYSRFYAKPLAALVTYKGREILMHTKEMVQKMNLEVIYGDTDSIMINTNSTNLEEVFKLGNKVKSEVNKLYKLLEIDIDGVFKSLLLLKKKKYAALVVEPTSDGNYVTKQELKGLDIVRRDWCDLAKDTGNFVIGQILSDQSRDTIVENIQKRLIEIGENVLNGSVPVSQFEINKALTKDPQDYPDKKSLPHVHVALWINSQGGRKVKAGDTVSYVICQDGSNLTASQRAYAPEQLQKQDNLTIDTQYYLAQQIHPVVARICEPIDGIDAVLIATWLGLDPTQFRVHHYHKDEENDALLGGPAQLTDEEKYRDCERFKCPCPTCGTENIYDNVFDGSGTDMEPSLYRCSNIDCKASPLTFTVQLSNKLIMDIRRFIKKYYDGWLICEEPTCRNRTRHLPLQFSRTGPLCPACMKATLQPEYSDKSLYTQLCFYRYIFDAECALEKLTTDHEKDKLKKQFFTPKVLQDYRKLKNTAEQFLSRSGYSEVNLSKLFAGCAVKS
# [2] = target: HCMV DNA polymerase (Human cytomegalovirus, UniProt P08546); experiment: HCMV DNA polymerase enzyme assay; format: biochemical; details: calf thymus DNA
# [3] = target: HSV-1 DNA polymerase (Human herpesvirus 1, UniProt P04293); experiment: HSV-1 DNA polymerase enzyme assay; format: biochemical; details: calf thymus DNA
# [4] = target: cellular DNA polymerase β (Homo sapiens, UniProt P06746); experiment: Cellular DNA polymerase β assay; format: biochemical
# [5] = test system: HIV-1 RT K70E; experiment: Mutant HIV-1 RT assay K70E; format: biochemical
# [6] = test system: HIV-1 RT Q151M; experiment: Mutant HIV-1 RT assay Q151M; format: biochemical
# [7] = test system: HIV-1 RT F61A; experiment: Mutant HIV-1 RT assay F61A; format: biochemical
# [8] = test system: HIV-1 RT M184I + E138K; experiment: Mutant HIV-1 RT assay M184I + E138K; format: biochemical
# [9] = test system: HIV-1 RT M184V; experiment: Mutant HIV-1 RT assay M184V; format: biochemical; details: Poly rI.dC [^3H]dCTP
# [10] = test system: HIV-1 RT M184I; experiment: Mutant HIV-1 RT assay M184I; format: biochemical; details: Poly rI.dC [^3H]dCTP
# [11] = test system: HIV-1 RT V106A
# [12] = test system: HIV-1 RT M184V + E138K; experiment: Mutant HIV-1 RT assay M184V + E138K; format: biochemical; details: Poly rI.dC [^3H]dCTP
# [13] = test system: HIV-1 RT Y181C
# [14] = test system: HIV-1 RT K70Q; experiment: Mutant HIV-1 RT assay K70Q; format: biochemical; details: Poly rI.dC [^3H]dCTP
# [15] = target: HIV-1 RT (Human immunodeficiency virus type 1 group M subtype B, UniProt P04585); experiment: HIV-1 RT assay with homopolymeric template/primers; format: biochemical; details: read-out: IC50 HIV-1 RT
# [16] = test system: HIV-1 RT K103N
# [17] = test system: HIV-1 RT K65R; experiment: Mutant HIV-1 RT assay K65R; format: biochemical
# [18] = test system: HIV-1 RT E138K; experiment: Mutant HIV-1 RT assay E138K; format: biochemical
# [19] = test system: HIV-1 RT K70R; experiment: Mutant HIV-1 RT assay K70R; format: biochemical; details: Poly rA.dT [^3H]dTTP
# [20] = test system: HIV-1 RT L100I; details: Poly rA.dT [^3H]dTTP
# [21] = test system: HIV-1 RT M184V + Y115F; experiment: Mutant HIV-1 RT assay M184V + Y115F; format: biochemical; details: Poly rI.dC [^3H]dCTP
# [22] = test system: HIV-1 RT V75I; experiment: Mutant HIV-1 RT assay V75I; format: biochemical; details: Poly rA.dT [^3H]dTTP
# Sequence of HSV-1 DNA polymerase (P04293 whole entry): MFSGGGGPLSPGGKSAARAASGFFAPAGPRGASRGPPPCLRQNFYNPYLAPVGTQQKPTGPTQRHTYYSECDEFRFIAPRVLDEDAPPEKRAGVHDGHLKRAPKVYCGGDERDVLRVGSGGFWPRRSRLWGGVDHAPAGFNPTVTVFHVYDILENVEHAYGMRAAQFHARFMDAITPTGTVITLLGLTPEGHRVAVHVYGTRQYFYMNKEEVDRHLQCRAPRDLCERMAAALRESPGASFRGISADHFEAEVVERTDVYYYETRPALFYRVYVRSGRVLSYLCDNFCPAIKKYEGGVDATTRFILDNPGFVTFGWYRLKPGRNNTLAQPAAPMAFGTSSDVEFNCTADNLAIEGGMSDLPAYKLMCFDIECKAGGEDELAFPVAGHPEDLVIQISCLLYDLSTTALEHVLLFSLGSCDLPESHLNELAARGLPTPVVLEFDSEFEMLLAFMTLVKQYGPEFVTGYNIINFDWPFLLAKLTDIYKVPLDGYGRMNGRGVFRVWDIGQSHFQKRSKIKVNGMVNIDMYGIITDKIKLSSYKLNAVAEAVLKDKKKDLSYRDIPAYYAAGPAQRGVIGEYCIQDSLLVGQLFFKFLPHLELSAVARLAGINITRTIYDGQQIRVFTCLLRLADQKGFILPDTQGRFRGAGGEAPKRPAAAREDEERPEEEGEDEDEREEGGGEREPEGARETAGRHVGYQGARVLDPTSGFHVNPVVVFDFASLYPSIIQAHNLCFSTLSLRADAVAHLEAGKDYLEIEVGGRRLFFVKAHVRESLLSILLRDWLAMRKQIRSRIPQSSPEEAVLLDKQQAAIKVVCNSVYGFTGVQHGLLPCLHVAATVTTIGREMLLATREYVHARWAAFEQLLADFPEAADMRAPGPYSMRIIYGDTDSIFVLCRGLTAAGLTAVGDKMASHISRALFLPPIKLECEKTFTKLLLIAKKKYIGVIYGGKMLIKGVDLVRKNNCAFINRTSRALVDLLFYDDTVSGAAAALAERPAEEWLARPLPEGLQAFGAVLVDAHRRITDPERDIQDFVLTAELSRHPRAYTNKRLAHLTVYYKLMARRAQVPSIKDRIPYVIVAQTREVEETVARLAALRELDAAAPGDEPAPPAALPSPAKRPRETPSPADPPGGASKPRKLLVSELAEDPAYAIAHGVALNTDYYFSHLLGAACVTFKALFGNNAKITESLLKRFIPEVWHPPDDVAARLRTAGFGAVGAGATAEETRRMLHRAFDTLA
# Sequence of HCMV DNA polymerase (P08546 whole entry): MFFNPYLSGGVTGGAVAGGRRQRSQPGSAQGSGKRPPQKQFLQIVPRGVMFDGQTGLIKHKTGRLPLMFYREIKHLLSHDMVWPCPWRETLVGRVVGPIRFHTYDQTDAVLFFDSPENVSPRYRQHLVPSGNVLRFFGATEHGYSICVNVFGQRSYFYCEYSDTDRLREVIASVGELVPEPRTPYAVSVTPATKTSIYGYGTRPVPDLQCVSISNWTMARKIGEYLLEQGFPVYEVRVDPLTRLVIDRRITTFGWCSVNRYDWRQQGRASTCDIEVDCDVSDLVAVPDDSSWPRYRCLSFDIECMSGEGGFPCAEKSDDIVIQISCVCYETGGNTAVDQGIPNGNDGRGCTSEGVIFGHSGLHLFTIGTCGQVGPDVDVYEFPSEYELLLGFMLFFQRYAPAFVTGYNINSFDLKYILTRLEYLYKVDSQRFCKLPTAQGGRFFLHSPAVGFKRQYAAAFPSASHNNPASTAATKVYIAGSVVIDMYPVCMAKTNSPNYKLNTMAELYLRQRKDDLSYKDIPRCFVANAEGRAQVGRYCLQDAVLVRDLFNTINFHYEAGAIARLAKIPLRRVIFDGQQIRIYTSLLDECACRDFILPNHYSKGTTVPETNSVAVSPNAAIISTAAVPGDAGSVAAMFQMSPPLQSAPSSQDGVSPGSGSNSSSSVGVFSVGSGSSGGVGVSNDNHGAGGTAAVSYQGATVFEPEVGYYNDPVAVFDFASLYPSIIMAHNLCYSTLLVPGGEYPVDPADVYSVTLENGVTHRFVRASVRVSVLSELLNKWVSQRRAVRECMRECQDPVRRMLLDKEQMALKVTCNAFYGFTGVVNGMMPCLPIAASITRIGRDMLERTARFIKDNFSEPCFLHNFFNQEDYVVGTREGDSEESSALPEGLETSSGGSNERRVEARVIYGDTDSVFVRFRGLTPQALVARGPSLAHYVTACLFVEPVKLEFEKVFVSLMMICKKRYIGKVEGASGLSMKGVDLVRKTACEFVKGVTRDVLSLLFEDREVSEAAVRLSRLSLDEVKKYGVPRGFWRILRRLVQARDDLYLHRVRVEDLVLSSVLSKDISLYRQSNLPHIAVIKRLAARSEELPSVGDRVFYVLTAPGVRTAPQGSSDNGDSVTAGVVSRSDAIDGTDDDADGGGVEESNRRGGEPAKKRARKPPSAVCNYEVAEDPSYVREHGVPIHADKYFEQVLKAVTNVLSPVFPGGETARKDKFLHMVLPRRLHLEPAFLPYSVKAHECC
compound,measurement,setting,value
Cc1ccnc2c1NC(=O)c1cccnc1N2C1CC1 [Nevirapine],IC50,[1],> 250 µM
same,IC50,"[2]; IC50 HCMV DNA pol, [^3H]dGTP",> 250 µM
same,IC50,"[2]; IC50 HCMV DNA pol, [^3H]dTTP",> 250 µM
same,IC50,"[3]; IC50 HSV-1 DNA pol, [^3H]dGTP",> 100 µM
same,IC50,"[3]; IC50 HSV-1 DNA pol, [^3H]dTTP",> 100 µM
same,IC50,[4],> 250 µM
Cn1c2ccccc2c2c1cc(C#N)c(=O)n2-c1ccc([N+](=O)[O-])cc1 [INDOPY],IC50,"[1]; read-out: IC50 α DNA pol, calf thymus DNA, [^3H]dGTP",> 100 µM
same,Fold-resistance compared to wild-type,[5]; Poly rA.dT [^3H]dTTP,1.5 fold
same,Fold-resistance compared to wild-type,[5]; Poly rI.dC [^3H]dCTP,0.6 fold
same,Fold-resistance compared to wild-type,[6]; Poly rA.dT [^3H]dTTP,1.6 fold
same,Fold-resistance compared to wild-type,[6]; Poly rI.dC [^3H]dCTP,0.2 fold
same,IC50,"[2]; read-out: IC50 HCMV DNA pol, [^3H]dGTP",> 100 µM
same,IC50,"[2]; read-out: IC50 HCMV DNA pol, [^3H]dTTP",> 100 µM
same,Fold-resistance compared to wild-type,[7]; Poly rA.dT [^3H]dTTP,2.2 fold
same,Fold-resistance compared to wild-type,[7]; Poly rI.dC [^3H]dCTP,1.9 fold
same,Fold-resistance compared to wild-type,[8]; Poly rA.dT [^3H]dTTP,1.1 fold
same,Fold-resistance compared to wild-type,[8]; Poly rI.dC [^3H]dCTP,0.6 fold
same,Fold-resistance compared to wild-type,[9],> 6.7 fold
same,Fold-resistance compared to wild-type,[10],≥ 6.7 fold
same,Fold-resistance compared to wild-type,[11]; Poly rA.dT [^3H]dTTP,1.0 fold
same,Fold-resistance compared to wild-type,[11]; Poly rI.dC [^3H]dCTP,0.4 fold
same,Fold-resistance compared to wild-type,[12],1.0 fold
same,Fold-resistance compared to wild-type,[13]; Poly rA.dT [^3H]dTTP,1.3 fold
same,Fold-resistance compared to wild-type,[13]; Poly rI.dC [^3H]dCTP,≥ 6.7 fold
same,Fold-resistance compared to wild-type,[14],0.7 fold
same,IC50,"[15]; poly rA.dT, [^3H]dTTP",0.26 ± 0.07 µM
same,IC50,"[15]; poly rC.dG, [^3H]dGTP",> 200 µM
same,IC50,"[3]; read-out: IC50 HSV-1 DNA pol, [^3H]dGTP",> 100 µM
same,IC50,"[3]; read-out: IC50 HSV-1 DNA pol, [^3H]dTTP",> 100 µM
same,Fold-resistance compared to wild-type,[16]; Poly rA.dT [^3H]dTTP,0.6 fold
same,Fold-resistance compared to wild-type,[16]; Poly rI.dC [^3H]dCTP,1.1 fold
same,Fold-resistance compared to wild-type,[17]; Poly rA.dT [^3H]dTTP,1.0 fold
same,Fold-resistance compared to wild-type,[17]; Poly rI.dC [^3H]dCTP,1.3 fold
same,Fold-resistance compared to wild-type,[18]; Poly rA.dT [^3H]dTTP,0.7 fold
same,Fold-resistance compared to wild-type,[18]; Poly rI.dC [^3H]dCTP,1.0 fold
same,IC50,"[4]; read-out: IC50 β DNA pol, calf thymus DNA, [^3H]dGTP",> 100 µM
same,Fold-resistance compared to wild-type,[19],0.6 fold
same,Fold-resistance compared to wild-type,[20],3.9 fold
same,Fold-resistance compared to wild-type,[21],≥ 6.7 fold
same,Fold-resistance compared to wild-type,[22],1.0 fold
